Where two headings read alike, the source gives them in different places.

Data set [1] has as its system LPS-induced TNF-α production in primary microglia. In words: In vitro primary microglia TNF-α assay (LPS stimulation, ELISA). In kind it is cell-based, rat. As to conditions: rat primary microglia, LPS 10 ng/ml, compound 10 μM, 4 h; read-out: inhibition of LPS-induced TNF-α production. From the text: Mixed glial cells are obtained from the cerebral cortex of Sprague Dawley rat pups at postnatal days 1-3. Briefly, neonates are euthanized by decapitation and their brain tissues are collected for isolation of cortex. The isolated cortex was then trypsinized, triturated, and placed onto tissue culture flasks in DMEM supplemented with 10% fetal bovine serum and 1% Penicillin/Streptomycin. After 10 days in vitro, microglia are harvested by gentle shaking of the growth flask, plated in a 96 well plate at a density of 30,000 cells/well, and incubated at 37° C. overnight. […] Following the 4 h incubation, cell media is collected and the concentration of TNF-α is measured by ELISA (Invitrogen, KRC3011) according to the manufacturer's instruction.
The effects of selected compounds on cellular inflammatory response to LPS are determined in primary microglia extracted from a rat. Briefly, mixed glial cells are obtained from the cerebral cortex of Sprague Dawley rat pups at postnatal days 1-3 and cultured in DMEM supplemented with 10% fetal bovine serum. After 7 days in vitro, microglia are harvested by gentle shaking of the growth flask and plated in a 96 well plate at the density of 3×10^4 cells/well. The cells are used following day. Effects of compounds on LPS-induced TNFα production are determined by incubating cells with LPS along with or without test compounds for 4 hours. Following the 4 hour incubation, cell media are collected and concentration of TNFα was measured by EUSA.
In general terms: ELISA stands for enzyme-linked immunosorbent assay.

A short description of data set [2]: Pharmacokinetic study, 4 hour time course. As to conditions: rat; for AUC(0-inf) / Cmax / bioavailability: Sprague-Dawley, 10 mg/kg; for AUC(0-inf): AUCinf. In kind it is in vivo, Sprague-Dawley rats. As to the method:
Two cohorts of Sprague-Dawley rats are used in two independent studies. All animals are fasted overnight before the experiment with free access to water. In study 1, a total of 18 rats are used for a 4 h time course pharmacokinetic (PK) study. […] On the day of the experiment, xamoterol is freshly prepared in saline. […] Four hours post-dose, rats are deeply anesthetized with isoflurane and blood samples are collected by cardiac puncture. In study 2, a total of 18 rats are used for a 20 min post-dose collection study. […] At 20 min post-dose, rats are deeply anesthetized with isoflurane and blood samples are collected by cardiac puncture. Brains are collected after perfusion with phosphate buffered saline. […] LC separation is carried out on a Phenomenex Synergi Polar-RP column (2.5 μm, 2 mm×50 mm) with a flow rate of 0.25 ml/min at room temperature. Mobile phase A consisted of 10 mM ammonium acetate and 0.1% formic acid in LCMS grade water. Mobile phase B consisted of 10 mM ammonium acetate and 0.1% formic acid in LCMS grade acetonitrile: water 90:10% (v/v). […] Five μl of the extracted samples is injected. The mass spectrometer is operated in the positive mode with multiple-reaction monitoring (MRM) with the transition m/z 334.1→210.1 and 334.1→100.2.

Data set [3] relates to heart rate and blood pressure. In words: Cardiovascular studies (heart rate and blood pressure) in anesthetized rats. The following applies: 3 mg/kg subcutaneous. The class given is in vivo, Sprague-Dawley rats. As to the method:
Adult rats are anesthetizes using isoflurane and are accommodated on a heated platform warmed to 36° C. A jugular catheter (for IV administration of the drug) and an intra-arterial catheter (tail artery, for blood pressure measurements) are implanted under 2.5% isoflurane. To avoid clotting, all animals received a single dose of heparin after intravenous cannulation. Intra-arterial catheter was then connected to a pressure transducer coupled to a computerized data acquisition system (PowerLab) and its application software (LabChart 8)[AD Instruments (Australia)]. Mean blood pressure and the hear rate was analyzed and plotted using prism software.
Briefly, rats are anesthetized with 3-4% isoflurance and 1 cm longitudinal incision is made on the ventral aspect of the tail exposing the tail artery. Polyethylene catheter (PE50) filled with heparinized saline is then inserted into the tail artery and connected to blood pressure transducer system. After assuring absence of any air bubbles, 5-10 min of baseline systolic and diastolic blood pressure along with heart rate are recorded using LabChart Pro (AD Instruments).
FIG. 9 illustrates the effect of exemplary compounds on average heart rate in a rat in comparison with reference compounds isoprenaline and ICI 118,551. FIG. 10 illustrates the effect of exemplary compounds on blood pressure in a rat in comparison with reference compounds isoprenaline and ICI 118,551.

Data set [4] has as its system tMCAO rat model of stroke. In words: tMCAO model of stroke, Paw-Whisker test of sensorimotor function. The following applies: 3 mg/kg then 0.3 mg/kg daily subcutaneous, 28 days. The class given is in vivo. On the procedure: The tMCAO is performed on animal under isoflurane inhalation anesthesia (4% for induction and 1.5-2.5% for maintenance) in airoxygen mixture ratio 3:1. Ventral neck area is shaved by electric razor and disinfected using betadine followed by 70% ethanol solution. Subsequently, a midline incision is made in the ventral neck area, sharp and blunt dissection techniques are used to isolate left common carotid artery (CCA) and the internal and external carotid arteries (ICA and ECA, respectively). The proximal CCA is ligated below the bifurcation using 3-0 braided silk suture allowing enough room for filament insertion in the area between the ligation and bifurcation. Subsequently, ECA is ligated at its origin dose to the CCA bifurcation, so that the occipital artery stays proximal to the ligature. A microvessel dip is placed on ICA temporarily to avoid excessive bleeding during filament insertion. In order to occlude the origin of middle cerebral artery (MCA), a monofilament with silicon coated tip (0.39 mm diameter, 5-6 mm long) is then inserted into the CCA, the microvessel dip removed following filament advancement into the ICA 20 mm from the bifurcation through small, horizontal incision. […] Sensorimotor function was measured by the Paw-Whisker test (vibrissae-evoked forelimb placing) once a week until 4 weeks post stroke. […]

On to `COc1ccccc1OCCNC[C@H](O)COc1ccc(O)cc1` [Compound 43], for which the inhibition (in general, the share of the control response that was lost under treatment) at 10 µM in data set [1] is around 55%. Besides, the AUC(0-inf) (commonly the area under the concentration-time curve extrapolated to infinity) in data set [2] (in vivo, ip) came to 2160 ± 310 ng·h/mL; in data set [2] (in vivo, iv), 1800 ± 256 ng·h/mL. Also, the Cmax (usually the highest concentration seen after dosing) in data set [2] (in vivo, ip, Cmax) amounted to 762 ± 67 ng/mL; in data set [2] (in vivo, iv, Cmax), 4000 ± 1110 ng/mL; in data set [2] (in vivo, po, 10 mg/kg PO - Portal vein, read-out: Cmax) it was 946 ng/mL; in data set [2] (in vivo, po, 10 mg/kg PO - Systemic (jugular vein), read-out: Cmax), 116 ng/mL. Besides, the bioavailability (in general, dose-corrected exposure relative to a reference, in per cent) in data set [2] (in vivo, po) is 6%. In addition, the “time of maximum concentration in systemic plasma” value in data set [2] (10 mg/kg IP) was 90 min. In data set [2] (4 hour time-course PK study), the clearance entry was “cleared more slowly”. For the same molecule, the “effect on blood pressure” value in data set [3] is reported as “significant reduction”. Besides, in data set [3], the “effect on heart rate” value is reported as “did not produce significant effects”.

Turning to `O=C(NCCNCC(O)COc1ccc(O)cc1)N1CCOCC1` (stereo not drawn) [Xamoterol, reference compound], the AUC(0-inf) was found to be 2830 ± 517 ng·h/mL in data set [2] (in vivo, ip) and 2450 ± 601 ng·h/mL in data set [2] (in vivo, iv). Moreover, the Cmax in data set [2] (in vivo, ip, Cmax) was 7440 ± 730 ng/mL; in data set [2] (in vivo, iv, Cmax) it was 22200 ± 4030 ng/mL. Besides, the bioavailability in data set [2] (in vivo, po) is 1.7%. The clearance entry in data set [2] (in vivo) is “cleared rapidly”. Also, in data set [3], the “effect on blood pressure” value is on record as “significant reduction”. Further, the “effect on heart rate” value in data set [3] is given as “did not produce significant effects”. The sensorimotor function entry in data set [4] is “improves sensorimotor function”.

The values above are taken from patent US11173144B2, “Adrenergic receptor modulating compounds and methods of using the same” (The Board of Trustees of the Leland Stanford Junior …, priority 2016, dated 2021).
